Measurements as given in patent publication US4608373A, “Cephem compounds” (Yamanouchi Pharmaceutical Co., Ltd., priority 1982, dated 1986).
Values after ≈ are worked out from the molar mass of the structure shown. Where a name gives a salt, the structure may show the parent alone.

How the values were obtained:
Assay type in all cases: cell-based
[1] = tested on: Staph. aureus ATCC 6538P; experiment: Antibacterial activity (MIC), Staph. aureus ATCC 6538P; conditions: Staphylococcus aureus, ATCC6538P, read-out: MIC (minimum effective inhibitory concentration)
Excerpt: (§1) Antibacterial activities (minimum effective inhibitory concentrations) of the compounds of formula I are shown in the following table in comparison with those of cefatazidime having the structure [drawing 5] and cefmenoxime having the structure [drawing 6]

[2] = tested on: Staph. aureus Smith; experiment: Antibacterial activity (MIC), Staph. aureus Smith; conditions: Staphylococcus aureus, read-out: MIC (minimum effective inhibitory concentration)
Excerpt: as §1

[3] = tested on: Staph. aureus Terashima; experiment: Antibacterial activity (MIC), Staph. aureus Terashima; conditions: Staphylococcus aureus, read-out: MIC (minimum effective inhibitory concentration)
Excerpt: as §1

[4] = tested on: E. coli Ebara; experiment: Antibacterial activity (MIC), E. coli Ebara; conditions: Escherichia coli; E. coli Ebara; read-out: MIC (minimum effective inhibitory concentration)
Excerpt: as §1

[5] = tested on: Kleb. pneumoniae ATCC 10031; experiment: Antibacterial activity (MIC), Kleb. pneumoniae ATCC 10031; conditions: Klebsiella pneumoniae, ATCC10031, read-out: MIC (minimum effective inhibitory concentration)
Excerpt: as §1

[6] = tested on: Proteus morgani IID 602; experiment: Antibacterial activity (MIC), Proteus morgani IID 602; conditions: Proteus morgani IID 602; read-out: MIC (minimum effective inhibitory concentration)
Excerpt: as §1

[7] = tested on: Serr. marcescens IID 620; experiment: Antibacterial activity (MIC), Serr. marcescens IID 620; conditions: Serratia marcescens, IID620; Serr. marcescens IID 620; read-out: MIC (minimum effective inhibitory concentration)
Excerpt: as §1

[8] = tested on: Ent. aerogenes ATCC 13048 (MS-1); experiment: Antibacterial activity (MIC), Ent. aerogenes ATCC 13048 (MS-1); conditions: Klebsiella aerogenes, ATCC13048, read-out: MIC (minimum effective inhibitory concentration)
Excerpt: as §1

[9] = tested on: Ent. cloacae V-8; experiment: Antibacterial activity (MIC), Ent. cloacae V-8; conditions: Enterobacter cloacae, V8, read-out: MIC (minimum effective inhibitory concentration)
Excerpt: as §1

[10] = tested on: Ps. aeruginosa NCTC 10490; experiment: Antibacterial activity (MIC), Ps. aeruginosa NCTC 10490; conditions: Pseudomonas aeruginosa, NCTC10490, read-out: MIC (minimum effective inhibitory concentration)
Excerpt: as §1

[11] = tested on: Ps. aeruginosa IID 5142; experiment: Antibacterial activity (MIC), Ps. aeruginosa IID 5142; conditions: Pseudomonas aeruginosa, IID5142, read-out: MIC (minimum effective inhibitory concentration)
Excerpt: as §1

`Nc1nc(CO/N=C(\C(=O)NC2C(=O)N3C(C(=O)[O-])=C(C[n+]4ccccn4)CSC23)c2csc(N)n2)cs1` (stereo not drawn) [Example 7, (Z)-7-{α-(2-amino-4-thiazolyl)-α-[(2-amino-4-thiazolyl)methoxyimino]acetamido}-3-(1-pyridadiniomethyl)-3-cephem-4-carboxylate] was tested, and the MIC [1] was 1.56 µg/mL (≈ 2.72 µM), the MIC [2] was 1.56 µg/mL (≈ 2.72 µM) and the MIC [3] was 1.56 µg/mL (≈ 2.72 µM). It also gave an MIC [4] of 0.78 µg/mL (≈ 1.36 µM), an MIC [5] of at most 0.2 µg/mL and an MIC [6] of 1.56 µg/mL (≈ 2.72 µM). It also gave an MIC [7] of 0.39 µg/mL (≈ 0.68 µM), an MIC [8] of 3.13 µg/mL (≈ 5.46 µM) and an MIC [9] of 6.25 µg/mL (≈ 10.9 µM). For the same compound, the MIC [10] was 0.78 µg/mL (≈ 1.36 µM) and the MIC [11] was 12.5 µg/mL (≈ 21.8 µM).

Work on `Nc1nc(CO/N=C(\C(=O)NC2C(=O)N3C(C(=O)[O-])=C(C[n+]4ccccc4)CSC23)c2csc(N)n2)cs1` (stereo not drawn) [Example 8, (Z)-7-{α-(2-amino-4-thiazolyl)-α-[(2-amino-4-thiazolyl)methoxyimino]acetamido}-3-(1-pyridiniummethyl)-3-cephem-4-carboxylate] yielded an MIC [1] of 1.56 µg/mL (≈ 2.72 µM), an MIC [2] of 0.78 µg/mL (≈ 1.36 µM) and an MIC [3] of 1.56 µg/mL (≈ 2.72 µM). It also gave an MIC [4] of 0.78 µg/mL (≈ 1.36 µM), an MIC [5] of at most 0.2 µg/mL and an MIC [6] of 0.78 µg/mL (≈ 1.36 µM). For the same compound, the MIC [7] was 0.78 µg/mL (≈ 1.36 µM), the MIC [8] was 1.56 µg/mL (≈ 2.72 µM) and the MIC [9] was 6.25 µg/mL (≈ 10.9 µM). It also gave an MIC [10] of at most 0.2 µg/mL and an MIC [11] of 3.13 µg/mL (≈ 5.47 µM).

Compound `NC(=O)c1cc[n+](CC2=C(C(=O)[O-])N3C(=O)C(NC(=O)/C(=N\OCc4csc(N)n4)c4csc(N)n4)C3SC2)cc1` (stereo not drawn) [Example 9, (Z)-7-{α-(2-amino-4-thiazolyl)-α-[(2-amino-4-thiazolyl)methoxyimino]acetamido}-3-(4-carbamoyl-1-pyridiniummethyl)-3-cephem-4-carboxylate] has an MIC [1] of 1.56 µg/mL (≈ 2.53 µM), an MIC [2] of 1.56 µg/mL (≈ 2.53 µM) and an MIC [3] of 1.56 µg/mL (≈ 2.53 µM). It also gave an MIC [4] of at most 0.2 µg/mL, an MIC [5] of at most 0.2 µg/mL and an MIC [6] of 0.39 µg/mL (≈ 0.633 µM). For the same compound, the MIC [7] was 0.78 µg/mL (≈ 1.27 µM), the MIC [8] was 1.56 µg/mL (≈ 2.53 µM) and the MIC [9] was 3.13 µg/mL (≈ 5.08 µM). For the same compound, the MIC [10] was 0.39 µg/mL (≈ 0.633 µM) and the MIC [11] was 6.25 µg/mL (≈ 10.2 µM).

Work on `Nc1nc(CO/N=C(\C(=O)NC2C(=O)N3C(C(=O)[O-])=C(C[n+]4cccc(CC(=O)O)c4)CSC23)c2csc(N)n2)cs1` (stereo not drawn) [Example 12, (Z)-7-{α-(2-amino-4-thiazolyl)-α-[(2-amino-4-thiazolyl)methoxyimino]acetamido}-3-(3-carboxylatemethyl-1-pyridiniomethyl)-3-cephem-4-carboxylate mono-sodium salt] yielded an MIC [1] of 3.13 µg/mL, an MIC [2] of 3.13 µg/mL and an MIC [3] of 6.25 µg/mL. The MIC [4] was 1.56 µg/mL, the MIC [5] was at most 0.2 µg/mL and the MIC [6] was 0.78 µg/mL. The MIC [7] was at most 0.2 µg/mL, the MIC [8] was 1.56 µg/mL and the MIC [9] was 3.13 µg/mL. It also gave an MIC [10] of 1.56 µg/mL and an MIC [11] of 25 µg/mL.

Compound `Nc1nc(CO/N=C(\C(=O)NC2C(=O)N3C(C(=O)[O-])=C(C[n+]4cccc(C(=O)O)c4)CSC23)c2csc(N)n2)cs1` (stereo not drawn) [Example 13, (Z)-7-{α-(2-amino-4-thiazolyl)-α-[(2-amino-4-thiazolyl)methoxyimino]acetamido}-3-(3-carboxylate-1-pyridiniomethyl)-3-cephem-4-carboxylatemono-sodium salt] has an MIC [1] of 3.13 µg/mL, an MIC [2] of 3.13 µg/mL and an MIC [3] of 6.25 µg/mL. For the same compound, the MIC [4] was 3.13 µg/mL, the MIC [5] was at most 0.2 µg/mL and the MIC [6] was 1.56 µg/mL. For the same compound, the MIC [7] was at most 0.2 µg/mL, the MIC [8] was 3.13 µg/mL and the MIC [9] was 3.13 µg/mL. The MIC [10] was 1.56 µg/mL and the MIC [11] was 25 µg/mL.

With `Nc1nc(CO/N=C(\C(=O)NC2C(=O)N3C(C(=O)[O-])=C(C[n+]4ccc(C(=O)O)cc4)CSC23)c2csc(N)n2)cs1` (stereo not drawn) [Example 14, (Z)-7-{α-(2-amino-4-thiazolyl)-α-[(2-amino-4-thiazolyl)methoxyimino]acetamido}-3-(4-carboxylate-1-pyridiniomethyl)-3-cephem-4-carboxylatemono-sodium salt] the MIC [1] was 3.13 µg/mL, the MIC [2] was 3.13 µg/mL and the MIC [3] was 6.25 µg/mL. The MIC [4] was 3.13 µg/mL, the MIC [5] was at most 0.2 µg/mL and the MIC [6] was 0.78 µg/mL. For the same compound, the MIC [7] was at most 0.2 µg/mL, the MIC [8] was 1.56 µg/mL and the MIC [9] was 3.13 µg/mL. The MIC [10] was 0.39 µg/mL and the MIC [11] was 12.5 µg/mL.

Work on `Nc1nc(CO/N=C(\C(=O)NC2C(=O)N3C(C(=O)[O-])=C(C[n+]4ccc(CO)cc4)CS[C@H]23)c2csc(N)n2)cs1` (stereo partly drawn) [Example 15, (Z)-7-{α-(2-amino-4-thiazolyl)-α-[(2-amino-4-thiazolyl)methoxyimino]acetamido}-3-(4-hydroxymethyl-1-pyridiniomethyl)-3-cephem-4-carboxylate] yielded an MIC [1] of 1.56 µg/mL (≈ 2.59 µM), an MIC [2] of 1.56 µg/mL (≈ 2.59 µM) and an MIC [3] of 1.56 µg/mL (≈ 2.59 µM). The MIC [4] was at most 0.2 µg/mL, the MIC [5] was at most 0.2 µg/mL and the MIC [6] was 1.56 µg/mL (≈ 2.59 µM). It also gave an MIC [7] of at most 0.2 µg/mL, an MIC [8] of 1.56 µg/mL (≈ 2.59 µM) and an MIC [9] of 3.13 µg/mL (≈ 5.19 µM). The MIC [10] was at most 0.2 µg/mL and the MIC [11] was 6.25 µg/mL (≈ 10.4 µM).

For `Nc1nc(CO/N=C(\C(=O)NC2C(=O)N3C(C(=O)[O-])=C(C[n+]4cccc(O)c4)CS[C@H]23)c2csc(N)n2)cs1` (stereo partly drawn) [Example 16, (Z)-7-{α-(2-amino-4-thiazolyl)-α-[(2-amino-4-thiazolyl)methoxyimino]acetamido}-3-(3-hydroxy-1-pyridiniomethyl]-3-cephem-4-carboxylate], the MIC [1] was 3.13 µg/mL (≈ 5.32 µM), the MIC [2] was 6.25 µg/mL (≈ 10.6 µM) and the MIC [3] was 6.25 µg/mL (≈ 10.6 µM). It also gave an MIC [4] of 1.56 µg/mL (≈ 2.65 µM), an MIC [5] of at most 0.2 µg/mL and an MIC [6] of 0.78 µg/mL (≈ 1.33 µM). It also gave an MIC [7] of 0.39 µg/mL (≈ 0.663 µM), an MIC [8] of 3.13 µg/mL (≈ 5.32 µM) and an MIC [9] of 6.25 µg/mL (≈ 10.6 µM). For the same compound, the MIC [10] was 1.56 µg/mL (≈ 2.65 µM) and the MIC [11] was 25 µg/mL (≈ 42.5 µM).
